Assay results reported in patent publication US20020026053A1, “Novel 3-(substituted) -2- indolinones compounds and use thereof as inhibitors of protein kinase activity” (priority 1997, published 2002).

Legend:
[1] = tested on: FLK-1 receptor; test: FLK-1 Assay (cellular/catalytic ELISA, VEGF-stimulated phosphotyrosine); type: cell-based; set-up: concentration or dose not given beside the values
Procedure, shortened: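 Receptor phosphotyrosine ELISA: Flk-1-expressing NIH3T3 C7#3 cells, starved overnight in 0.1% FBS medium, received compound (1:200 final dilution, 0.5% DMSO) for 2 h at 37 °C, then VEGF. Anti-FLK-1-captured receptor was probed with anti-phosphotyrosine UB40 and peroxidase/ABTS read-out, relative to cells without compound.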

[2] = tested on: PDGF-R; test: PDGF-R Assay (cellular ELISA, U1242 cells); type: cell-based; set-up: concentration or dose not given beside the values
Procedure, shortened: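 Cellular ELISA for receptor autophosphorylation: after 2 hr test-compound treatment of serum-free U1242 cells at 37°C, ligand is added for 5–10 min, cells are lysed (HNTG) and receptor captured by specific antibody. Anti-phosphotyrosine plus secondary antibody with ABTS colour read at 410/630 nm, compared with compound-free control cells.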

SMILES	Flk Kinase % Inhibition (P.110) [1] [%]	PDGF Kinase % Inhibition (P.119) [2] [%]
Cc1c(Br)cc(Br)c2c1C(=C1C(=O)N(C)c3ccccc31)C(=O)N2 [10731/H10]	25.9	40.3
Cc1c(Br)cc(Br)c2c1C(=CC(c1cccs1)C(F)(F)F)C(=O)N2 (stereo not drawn) [10732/H02]	9.1	6.8
COc1c(C(C)C)cc(C=C2C(=O)Nc3c(Br)cc(Br)c(C)c32)cc1C(C)C [10732/H03]	8.4	−1.8
Cc1c(Br)cc(Br)c2c1C(=Cc1cc(C(C)C)c(Oc3ccccc3)c(C(C)C)c1)C(=O)N2 [10732/H04]	4.9	14.4
COc1ccc(C=C2C(=O)Nc3c(Br)cc(Br)c(C)c32)cc1C(C)(C)C [10732/H05]	12.8	−25.6
Cc1c(Br)cc(Br)c2c1C(=Cc1ccc(OCc3ccccc3)c(C(C)(C)C)c1)C(=O)N2 [10732/H06]	22.6	−18.0
COc1c(Br)cc(C=C2C(=O)Nc3c(Br)cc(Br)c(C)c32)cc1C(C)(C)C [10732/H07]	9.7	−22.0
Cc1c(Br)cc(Br)c2c1C(=Cc1cc(Br)c(OCc3ccccc3)c(C(C)(C)C)c1)C(=O)N2 [10732/H08]	12.6	7.8
COc1c(Cl)cc(C=C2C(=O)Nc3c(Br)cc(Br)c(C)c32)cc1C(C)(C)C [10732/H09]	5.4	−14.4
Cc1c(Br)cc(Br)c2c1C(=Cc1cc(Cl)c(OCc3ccccc3)c(C(C)(C)C)c1)C(=O)N2 [10732/H10]	3.3	−21.0
COc1c(I)cc(C=C2C(=O)Nc3c(Br)cc(Br)c(C)c32)cc1C(C)(C)C [10732/H11]	6.4	−16.0
Cc1c(Br)cc(Br)c2c1C(=Cc1cc(I)c(OCc3ccccc3)c(C(C)(C)C)c1)C(=O)N2 [10733/H02]	−2.0	−5.6
COc1c([N+](=O)[O-])cc(C=C2C(=O)Nc3c(Br)cc(Br)c(C)c32)cc1C(C)(C)C [10733/H03]	31.2	16.8
COc1c(C(C)(C)C)cc(C=C2C(=O)Nc3c(Br)cc(Br)c(C)c32)cc1C(C)(C)C [10733/H04]	−8.5	−14.5
Cc1c(Br)cc(Br)c2c1C(=Cc1cc(C(C)(C)C)c(OCc3ccccc3)c(C(C)(C)C)c1)C(=O)N2 [10733/H05]	17.7	−15.3
COc1c(C)cc(C=C2C(=O)Nc3c(Br)cc(Br)c(C)c32)cc1C [10733/H06]	30.0	−12.9
Cc1cc(C=C2C(=O)Nc3c(Br)cc(Br)c(C)c32)cc(C)c1OCc1ccccc1 [10733/H07]	7.6	−19.0
COc1cc(Br)cc(C=C2C(=O)Nc3c(Br)cc(Br)c(C)c32)c1O [10733/H08]	4.8	−15.3
Cc1c(Br)cc(Br)c2c1C(=Cc1cc(Br)ccc1O)C(=O)N2 [10733/H09]	44.8	5.0
Cc1c(Br)cc(Br)c2c1C(=Cc1cc([N+](=O)[O-])ccc1O)C(=O)N2 [10733/H10]	12.6	10.7
COc1c(O)ccc(C=C2C(=O)Nc3c(Br)cc(Br)c(C)c32)c1[N+](=O)[O-] [10733/H11]	29.1	−4.8
